How the values were obtained:
[1] = system: human melanoma A375 cells; experiment: Cell proliferation, A375 (Example 4); format: cell-based; settings: A-375, compound in 2-hydroxypropyl-β-cyclodextrin
Procedure: Human ovary cancer A2780 cells lines were seeded at a density of 5000 cells/well, human melanoma A375 cells were plated at a density of 2,500 cells/well, human colon carcinoma HCT15 cells were plated at a density of 3,000 cells/well, human prostate carcinoma PC3 cells were plated at a density of 1,500 cells/well, human breast carcinoma MCF7 cells were plated at a density of 5,000 cells/well, human breast carcinoma MDA MB 468 cells were plated at a density of 6,000 cells/well, human myeloma U266, RPMI8226 and CAG cells were plated at a density of 10,000 cells/well. All cells were plated in 96-well plates in 90 μl growth medium containing 10% FCS, 100 units/ml penicillin and 100 μg/ml streptomycin. Compound 3 was added a day later in […] of 1% DMSO in DDW to obtain final concentrations of 0, 0.1, 0.3, 1, 3, and 10 μM. The final concentration of DMSO (0.1% DMSO) was kept constant in all samples. […] The optical density values were read at 630 nm in ELISA plate reader. Non-adhered cells were exposed to WST-1 reagent for 5 hours following 72 hours treatment with the inhibitors, and optical density values were read at 630 nm in ELISA plate reader. The data was analyzed in Microsoft Excel, using the vehicle control as 100% proliferation. […]

[2] = system: human multiple myeloma MM1S cells; experiment: Cytotoxicity of combination with Velcade in MM1S cells (CellTiter Glo); format: cell-based; settings: for α/a+β/b (synergism if <1): combination with Velcade, three days; for combined effect with Velcade versus Bliss additive effect: compound 0.1 or 0.2 M (so in the source), 1 and 1.5 nM Velcade, FIGS. 8 and 9
Procedure: Human multiple myeloma MM1S cells were plated at a density of 10,000 cells/well in 96-well plates in 90 μl growth medium containing 10% FCS, 100 units/ml penicillin and 100 μg/ml streptomycin. Velcade® (i.e. bortezomib or PS-341) was obtained from LC Laboratories. Compounds 3 and 5 were added a day later in 5 μl of 0.7% 2-hydroxypropyl-β-cyclodextrin in DDW to the multiple myeloma cell plates to obtain final concentrations of […]. Velcade® was added in 5 μl of 1% DMSO to obtain final concentrations of 0, 0.5, 1 and 1.5 nM. Three days later CellTiter Glo reagent (100 μl/well) was added to the medium (1:1), shaked, and following 10 min incubation transferred to 96-well white plates and read in a Luminometer. The data was analyzed in Microsoft Excel, using the vehicle control as 0% cytotoxicity. The assays were performed in triplicates. Cytotoxicity (%) was calculated as follows: [(absorbance of control cells—absorbance of drug-treated cells)/absorbance of control cells]×100. In FIGS. 8 and 9 the Bliss additivism model (Cardone et al. Science (1998), 282: 1318-1321) was used to calculate the combined effect using the following formula: Ebliss=EA+EB−EA×EB, where EA and EB are the fractional inhibitions obtained by drug A alone and drug B alone at specific concentrations. […] The synergic effect was calculated in an additional method in which the existence of α/a+β/b<1 was tested (a is the IC50 of drug A in the absence of drug B, α is the IC50 of drug A in the presence of drug B, b is the IC50 of drug B in the absence of drug A, β is the IC50 of drug B in the presence of drug A).

For O=c1c(O)cc2cnc(/C=C/c3cc(O)c(O)c(Br)c3)sc-2c1O [Compound 3], the IC50 [1] was 0.5 µM, the “α/a+β/b (synergism if <1)” value [2] was 0.7 and the “combined effect with Velcade versus Bliss additive effect” value [2] was “strong synergistic effect”.

In the case of O=c1c(O)cc2cnc(/C=C/c3ccc(O)c(O)c3Br)sc-2c1O [Compound 5], the IC50 [1] is reported as 0.4 µM, the “α/a+β/b (synergism if <1)” value [2] is reported as 0.6 and the “combined effect with Velcade versus Bliss additive effect” value [2] is reported as “strong synergistic effect”.
